Results from the NIST ThermoML archive (doi:10.1016/j.fluid.2018.07.022).

Details: Liquid, Pendant drop shape

[HH] [hydrogen] + O
Details | interfacial tension [mN/m]
298.03 K, 500 kPa | 72.3
298.03 K, 1000 kPa | 72.9
298.04 K, 2000 kPa | 73
298.04 K, 5000 kPa | 72.6
298.04 K, 7500 kPa | 72.2
298.04 K, 10100 kPa | 71.9
298.04 K, 25000 kPa | 70.3
298.05 K, 3500 kPa | 72.8
298.05 K, 45200 kPa | 68.7
298.06 K, 15000 kPa | 71.3
298.06 K, 20100 kPa | 70.8
298.06 K, 30100 kPa | 69.8
298.09 K, 39900 kPa | 69.1
322.9 K, 1000 kPa | 69.3
322.98 K, 2000 kPa | 69.3
322.99 K, 5000 kPa | 68.9
323 K, 3500 kPa | 69.1
323 K, 10000 kPa | 68.3
323 K, 15000 kPa | 67.8
323 K, 40100 kPa | 65.8
323.01 K, 20000 kPa | 67.2
323.01 K, 25000 kPa | 66.8
323.02 K, 500 kPa | 68.9
323.02 K, 30100 kPa | 66.5
372.73 K, 15000 kPa | 59
372.74 K, 500 kPa | 59.8
372.77 K, 1000 kPa | 59.7
372.77 K, 25200 kPa | 58.5
372.77 K, 29800 kPa | 58.1
372.78 K, 2000 kPa | 59.7
372.78 K, 40100 kPa | 57.6
372.81 K, 10000 kPa | 59.3
372.85 K, 20100 kPa | 58.7
372.87 K, 5000 kPa | 59.5
448.02 K, 2000 kPa | 44.1
448.04 K, 1500 kPa | 44
448.24 K, 5000 kPa | 43.8
448.28 K, 15000 kPa | 43.4
448.29 K, 10000 kPa | 43.7
448.31 K, 25000 kPa | 43.2
448.31 K, 30100 kPa | 42.9
448.33 K, 20000 kPa | 43.3
448.35 K, 40100 kPa | 43.2
